Measured values from US20170166555A1, “FUNCTIONALISED AND SUBSTITUTED INDOLES AS ANTI-CANCER AGENTS” (Novogen Limited, priority 2013, published 2017).
Read-outs that look alike come from different tables or passages of the source.

How the values were obtained:
[1] = test system: A549 non-small cell lung carcinoma cells; assay: Anti-proliferative assay, cell-titre luminescent reagent, 72 h (GVK-BIO); assay type: cell-based; details: Homo sapiens, read-out: IC50/μM Lung (NSLC) A549
In short: (§1)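 Two dose schemes were used: 30, 3, 0.3, 0.03 μM, giving IC50 by linear regression of percent of control against log concentration; and 30, 10, 3, 1, 0.3, 0.1 μM, giving EC50 by nonlinear variable-slope regression after normalizing to vehicle. Cells had attached for 24 h beforehand.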

[2] = test system: SK-N-SH neuroblastoma cells; assay: as above; assay type: cell-based; details: Homo sapiens
In short: as §1

SK-Mel-28 melanoma cells = assay: as above; assay type: cell-based; details: Homo sapiens
In short: as §1

[3] = test system: CaCo2 colorectal cancer cells; assay: as above; assay type: cell-based; details: Homo sapiens
In short: as §1

[4] = test system: DU145 prostate cancer cells; assay: as above; assay type: cell-based; details: Homo sapiens
In short: as §1

[5] = test system: PC3 prostate cancer cells; assay: as above; assay type: cell-based
In short: as §1

[6] = test system: MDA-MB-231 triple negative breast cancer cells; assay: as above; assay type: cell-based; details: Homo sapiens
In short: as §1

[7] = test system: neuroblastoma (SH-EP) cells; assay: Cell viability assay (MTT, 48 hr); assay type: cell-based; details: 48 hr treatment, read-out: IC50 (μM) SHEP
Protocol: (§2) Cell viability assays were also conducted to assess the anti-proliferative effects of the anti-tropomyosin compounds 4001-4015. Briefly, cells (1×10^3/well) were plated (96-well) and treated (48 hr) with anti-tropomyosin drug and viability measured using 3-(4,5-dimethylthiazol-2-yl)-2,5-diphenylterazolium bromide MTT. Cell viability was normalized to control (vehicle alone) and dose-response curves, and half maximal effective concentration (EC50) values were determined using Graph Pad Prism 5 (nonlinear regression sigmoidal dose-response variable slope).

[8] = test system: melanoma (SK-Mel-28) cells; assay: Cell viability assay (MTT, 48 hr); assay type: cell-based; details: Homo sapiens, 48 hr treatment, read-out: IC50 (μM) SKMEL28
Protocol: as §2

[9] = test system: non-transfected and Tm5NM1 stably transfected MEFs; assay: MTT viability in non-transfected versus Tm5NM1 stably transfected MEFs; assay type: cell-based, mouse; details: 48 hr, FIG. 1
Protocol: FIG. 1: Activity of selected compounds against Tm5NM1/2 transfected mouse embryonic fibroblasts versus non-transfected MEFs.
Compounds 4001, 4010, 4014, 4008 and 4015 were then screened against non-transfected and Tm5NM1 stably transfected MEFs. Briefly, MEFs were transfected with pEYFP-C1/Tm5NM1 constructs using the Amaxa nucleofector apparatus (program A-023) and MEF nucleofector kit 1 (Lonza) according to the manufacturer's instructions. Cell viability assays were also conducted to assess the anti-proliferative effects of the anti-tropomyosin compounds. Briefly, cells (1×10^3/well) were plated (96-well) and treated (48 hr) with anti-tropomyosin compounds and viability measured using 3-(4,5-dimethylthiazol-2-yl)-2, 5-diphenylterazolium bromide MTT. Cell viability was normalized to control (vehicle alone) and dose-response curves, and half maximal effective concentration (EC50) values were determined using Graph Pad Prism 5 (nonlinear regression sigmoidal dose-response variable slope).

[10] = A549, 72 h, 30, 3, 0.3 and 0.03 μM, linear regression (Tables 2-4)
[11] = SK-N-SH, 30, 3, 0.3 and 0.03 μM, linear regression (Tables 2-4)
[12] = SK-MEL-28, 72 h, 30, 3, 0.3 and 0.03 μM, linear regression (Tables 2-4)
[13] = Caco-2, 72 h, 30, 3, 0.3 and 0.03 μM, linear regression (Tables 2-4)
[14] = DU-145, 72 h, 30, 3, 0.3 and 0.03 μM, linear regression (Tables 2-4)
[15] = 30, 3, 0.3 and 0.03 μM, linear regression (Tables 2-4)
[16] = MDA-MB-231, 72 h, 30, 3, 0.3 and 0.03 μM, linear regression (Tables 2-4)
[17] = A549, 72 h, 30, 10, 3, 1, 0.3 and 0.1 μM, nonlinear regression (Table 5)
[18] = SK-N-SH, 30, 10, 3, 1, 0.3 and 0.1 μM, nonlinear regression (Table 5)
[19] = SK-MEL-28, 72 h, 30, 10, 3, 1, 0.3 and 0.1 μM, nonlinear regression (Table 5)
[20] = Caco-2, 72 h, 30, 10, 3, 1, 0.3 and 0.1 μM, nonlinear regression (Table 5)
[21] = DU-145, 72 h, 30, 10, 3, 1, 0.3 and 0.1 μM, nonlinear regression (Table 5)
[22] = 30, 10, 3, 1, 0.3 and 0.1 μM, nonlinear regression (Table 5)
[23] = MDA-MB-231, 72 h, 30, 10, 3, 1, 0.3 and 0.1 μM, nonlinear regression (Table 5)

| Structure (SMILES) | IC50 [1, 10] | IC50 [2, 11] | IC50 (SK-Mel-28 melanoma cells; [12]) | IC50 [3, 13] | IC50 [4, 14] | IC50 [5, 15] | IC50 [6, 16] | IC50 [7] | IC50 [8] | IC50 [1, 17] | IC50 [2, 18] | IC50 (SK-Mel-28 melanoma cells; [19]) | IC50 [3, 20] | IC50 [4, 21] | IC50 [5, 22] | IC50 [6, 23] | Selectivity: toxicity against primary MEFs versus MEFs stably transfected with Tm5NM1/2 [9] |
| --- | --- | --- | --- | --- | --- | --- | --- | --- | --- | --- | --- | --- | --- | --- | --- | --- | --- |
| CN(C)CCCn1ccc2cc(-c3cnn(Cc4ccccc4)c3)ccc21 [Compound 4003, 3-(5-(1-benzyl-1H-pyrazol-4-yl)-1H-indol-1-yl)-N,N-dimethylpropan-1-amine] |  |  |  |  |  |  |  |  | 25.9 µM |  |  |  |  |  |  |  |  |
| CN(C)CCCn1ccc2cc(-c3cnn(CC4CCN(C)CC4)c3)ccc21 [Compound 4005, N,N-dimethyl-3-(5-(1-((1-methylpiperidin-4-yl)methyl)-1H-pyrazol-4-yl)-1H-indol-1-yl)propan-1-amine] |  |  |  |  |  |  |  | 5.4 µM | 53.8 µM |  |  |  |  |  |  |  |  |
| CN(C)CCCn1ccc2cc(-c3cnn(CC4CCOCC4)c3)ccc21 [Compound 4006, N,N-dimethyl-3-(5-(1-((tetrahydro-2H-pyran-4-yl)methyl)-1H-pyrazol-4-yl)-1H-indol-1-yl)propan-1-amine] |  |  |  |  |  |  |  | 107 µM |  |  |  |  |  |  |  |  |  |
| Cc1c(C)n(CCCN2CCN(C)CC2)c2ccc(C(=O)N3CCN(CCc4ccc(O)cc4)CC3)cc12 [Compound 4122, (2,3-dimethyl-1-(3-(4-methylpiperazin-1-yl)propyl)-1H-indol-5-yl)(4-(4-hydroxyphenethyl)piperazin-1-yl)methanone] |  |  |  |  |  |  |  |  |  | > 30 µM | > 30 µM | > 30 µM | > 30 µM | > 30 µM | > 30 µM | > 30 µM |  |
| Cc1c(C)n(CCCN2CCN(C)CC2)c2ccc(C(=O)N3CCN(CCc4ccc5c(c4)OCO5)CC3)cc12 [Compound 4123, (4-(2-(benzo[d][1,3]dioxol-5-yl)ethyl)piperazin-1-yl)(2,3-dimethyl-1-(3-(4-methylpiperazin-1-yl)propyl)-1H-indol-5-yl)methanone] | 15.6 µM | 12.3 µM | 16.8 µM | > 30 µM | > 30 µM | > 30 µM | 16.3 µM |  |  |  |  |  |  |  |  |  |  |
| Cc1c(C)n(CCCN2CCN(C)CC2)c2ccc(C(=O)N3CCN(CCc4cccc(F)c4)CC3)cc12 [Compound 4124, (2,3-dimethyl-1-(3-(4-methyl piperazin-1-yl)propyl)-1H-indol-5-yl)(4-(3-fluorophenethyl)piperazin-1-yl)methanone] | 15 µM | 10.9 µM | 15.9 µM | 29.6 µM | > 30 µM | 21.8 µM | 13.9 µM |  |  |  |  |  |  |  |  |  |  |
| COc1cccc(CCN2CCN(C(=O)c3ccc4c(c3)c(C)c(C)n4CCCN3CCN(C)CC3)CC2)c1 [Compound 4125, (2,3-dimethyl-1-(3-(4-methylpiperazin-1-yl)propyl)-1H-indol-5-yl)(4-(3-methoxyphenethyl)piperazin-1-yl)methanone] | 19.4 µM | 14.9 µM | 25 µM | > 30 µM | > 30 µM | > 30 µM | 33.2 µM |  |  |  |  |  |  |  |  |  |  |
| Cc1c(C)n(CCCN2CCN(C)CC2)c2ccc(C(=O)N3CCN(CCc4cccc(O)c4)CC3)cc12 [Compound 4126, (2,3-dimethyl-1-(3-(4-methylpiperazin-1-yl)propyl)-1H-indol-5-yl)(4-(3-hydroxyphenethyl)piperazin-1-yl)methanone] |  |  |  |  |  |  |  |  |  | > 30 µM | > 30 µM | > 30 µM | > 30 µM | > 30 µM | > 30 µM | > 30 µM |  |
| Cc1c(C)n(CCCN2CCN(C)CC2)c2ccc(C(=O)N3CCN(CCc4ccccc4)CC3)cc12 [Compound 4127, (2,3-dimethyl-1-(3-(4-methylpiperazin-1-yl)propyl)-1H-indol-5-yl)(4-phenethylpiperazin-1-yl)methanone] | 13.1 µM | 10.5 µM | 14.4 µM | 10.7 µM | > 30 µM | 12.9 µM | 13.5 µM |  |  |  |  |  |  |  |  |  |  |

The next lines start with results.

| IC50 [1, 10] | IC50 [2, 11] | IC50 (SK-Mel-28 melanoma cells; [12]) | IC50 [3, 13] | IC50 [4, 14] | IC50 [5, 15] | IC50 [6, 16] | IC50 [7] | IC50 [8] | IC50 [1, 17] | IC50 [2, 18] | IC50 (SK-Mel-28 melanoma cells; [19]) | IC50 [3, 20] | IC50 [4, 21] | IC50 [5, 22] | IC50 [6, 23] | Structure (SMILES) | Selectivity: toxicity against primary MEFs versus MEFs stably transfected with Tm5NM1/2 [9] |
| --- | --- | --- | --- | --- | --- | --- | --- | --- | --- | --- | --- | --- | --- | --- | --- | --- | --- |
| 2.7 µM | 4.1 µM | 3.6 µM | 3 µM | 3.2 µM | 2.8 µM | 3.1 µM | 4.63 µM | 4.3 µM |  |  |  |  |  |  |  | CN(C)CCCn1ccc2cc(Cc3ccc(C(=O)Nc4ccccc4)cc3)ccc21 [Compound 4001, 4-((1-(3-(dimethylamino)propyl)-1H-indol-5-yl)methyl)-N-phenylbenzamide] | less toxicity noted against primary mouse embryonic fibroblasts (MEFs) compared with MEFs stably transfected with Tm5NM1/2 |
|  |  |  |  |  |  |  | 9.24 µM | 7.04 µM | 16.3 µM | 3.2 µM | 9.3 µM | 13.1 µM | 37.4 µM | 12.4 µM | 15.7 µM | CN(C)CCCn1ccc2cc(Oc3ccc(C(=O)Nc4ccccc4)cc3)ccc21 [Compound 4002, 4-((1-(3-(dimethylamino)propyl)-1H-indol-5-yl)oxy)-N-phenylbenzamide] |  |
|  |  |  |  |  |  |  | 6.7 µM | 9.8 µM |  |  |  |  |  |  |  | CC(c1ccccc1)n1cc(-c2ccc3c(ccn3CCCN(C)C)c2)cn1 (stereo not shown) [Compound 4004, N,N-dimethyl-3-(5-(1-(1-phenylethyl)-1H-pyrazol-4-yl)-1H-indol-1-yl)propan-1-amine] |  |
| 3.8 µM | 9.3 µM | 3.3 µM | 5.8 µM | 3.3 µM | 4.3 µM | 3.9 µM | 2.7 µM | 3.4 µM |  |  |  |  |  |  |  | CN(C)CCCn1ccc2cc(Cc3cccc(C(=O)Nc4ccccc4)c3)ccc21 [Compound 4008] |  |
|  |  |  |  |  |  |  | 3 µM | 5.4 µM |  |  |  |  |  |  |  | Cc1c(C)n(CCCN(C)C)c2ccc(-c3cnn(Cc4ccccc4)c3)cc12 [Compound 4009, 3-(5-(1-benzyl-1H-pyrazol-4-yl)-2,3-dimethyl-1H-indol-1-yl)-N,N-dimethylpropan-1-amine] |  |
| 2.8 µM | 3.6 µM | 3.4 µM | 3.5 µM | 3.4 µM | 4 µM | 2.6 µM | 6.4 µM | 3.4 µM |  |  |  |  |  |  |  | Cc1c(C)n(CCCN(C)C)c2ccc(Nc3ccc(C(=O)Nc4ccccc4)cc3)cc12 [Compound 4010, 4-((1-(3-(dimethylamino)propyl)-2,3-dimethyl-1H-indol-5-yl)amino)-N-phenylbenzamide] | less toxicity noted against primary mouse embryonic fibroblasts (MEFs) compared with MEFs stably transfected with Tm5NM1/2 |
| 3 µM | 2.5 µM | 6.1 µM | 2.8 µM | 3.3 µM | 4.3 µM | 2.5 µM | 8.7 µM | 9.7 µM |  |  |  |  |  |  |  | Cc1c(C)n(CCCN(C)C)c2ccc(Nc3cccc(C(=O)Nc4ccccc4)c3)cc12 [Compound 4011, 3-((1-(3-(dimethylamino)propyl)-2,3-dimethyl-1H-indol-5-yl)amino)-N-phenylbenzamide] |  |
| 7.6 µM | 4.2 µM | 9.2 µM | > 30 µM | > 30 µM | > 30 µM | 3.7 µM | 14.5 µM | 15.8 µM |  |  |  |  |  |  |  | CN(C)CCCn1ccc2cc(Nc3cccc(C(=O)Nc4ccccc4)c3)ccc21 [Compound 4013, 3-((1-(3-(dimethylamino)propyl)-1H-indol-5-yl)amino)-N-phenylbenzamide] |  |
